{"source": "patent US10016439B2", "about": "“Fused imidazole compounds” (ONO PHARMACEUTICAL CO., LTD., priority 2014, dated 2018)", "key": {"[1]": {"assay": "Hepatic microsomal stability", "type": "in vitro ADME", "details": "human microsomes 0.5 mg protein/mL, NADPH, 1 μM, 37° C.; compound remaining; time point not stated", "protocol": "Microsomal stability assays were performed using pooled hepatic microsomes from human. Test and control compounds (propranolol or dextromethorphan, midazolam), prepared in DMSO, were incubated at an initial concentration of 1 μM (0.25% DMSO final, n=2) with microsomes (0.5 mg protein/mL) at 37° C. in the presence of the cofactor, NADPH (1 mM). Aliquots were removed at 0, 5, 10, 20 and 40 minutes for termination of reactions and compound extraction with acetonitrile containing an analytical internal standard. Samples were centrifuged and the supernatant fractions analysed for parent compound by mass spectrometry (LC-MS/MS).\n(§1) The amount of compound remaining (expressed as %) was determined from the MS response in each sample relative to that in the T=0 samples (normalised for internal standard).\nLn plots of the % remaining were used to determine the half-life for compound disappearance using the relationship: t½(min)=−0.693/λ where λ is the slope of the Ln % remaining vs time curve."}, "[2]": {"assay": "Cryopreserved hepatocyte stability", "type": "in vitro ADME", "details": "human hepatocytes 0.5 million cells/mL, 1 μM, 37° C.; compound remaining; time point not stated", "protocol": "Hepatocyte stability assays were performed using pooled human cryopreserved hepatocytes. Test and control compounds (testosterone, midazolam, 4-methylumbelliferone), prepared in DMSO, were incubated at an initial concentration of 1 μM (0.25% DMSO final, n=2) with hepatocytes at cell densities of 0.5 million cells/mL for both species at 37° C. Aliquots were removed at 0, 10, 20, 45 and 90 minutes for termination of reactions and compound extraction with acetonitrile containing an analytical internal standard. Samples were centrifuged and the supernatant fractions analysed for parent compound by mass spectrometry (LC-MS/MS).\nas §1\nLn plots of the % remaining were used to determine the half-life for compound disappearance using the relationship: t½(min)=−0.693/λ where λ is the slope of the Ln % remaining vs time curve. Hepatic Microsomal Stability: Half-life/Intrinsic Clearance Format"}, "GABAA α5/β3/γ2 [3]": {"target": "T1, GABAA α5/β3/γ2 (Homo sapiens (Human), UniProt P18507+P31644)", "T1 sequence (P31644 32-462)": "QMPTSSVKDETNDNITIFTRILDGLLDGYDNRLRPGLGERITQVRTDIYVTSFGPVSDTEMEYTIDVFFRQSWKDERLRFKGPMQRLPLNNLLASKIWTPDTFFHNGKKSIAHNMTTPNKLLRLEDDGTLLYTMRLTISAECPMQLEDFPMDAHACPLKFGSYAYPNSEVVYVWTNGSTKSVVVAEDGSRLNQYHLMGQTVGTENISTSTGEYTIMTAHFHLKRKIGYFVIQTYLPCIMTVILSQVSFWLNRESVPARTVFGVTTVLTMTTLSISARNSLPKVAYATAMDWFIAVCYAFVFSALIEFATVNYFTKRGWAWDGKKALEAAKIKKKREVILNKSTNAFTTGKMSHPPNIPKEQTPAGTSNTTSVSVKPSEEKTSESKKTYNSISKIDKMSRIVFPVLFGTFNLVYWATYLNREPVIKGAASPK", "T1 sequence (P28472 26-473 partner)": "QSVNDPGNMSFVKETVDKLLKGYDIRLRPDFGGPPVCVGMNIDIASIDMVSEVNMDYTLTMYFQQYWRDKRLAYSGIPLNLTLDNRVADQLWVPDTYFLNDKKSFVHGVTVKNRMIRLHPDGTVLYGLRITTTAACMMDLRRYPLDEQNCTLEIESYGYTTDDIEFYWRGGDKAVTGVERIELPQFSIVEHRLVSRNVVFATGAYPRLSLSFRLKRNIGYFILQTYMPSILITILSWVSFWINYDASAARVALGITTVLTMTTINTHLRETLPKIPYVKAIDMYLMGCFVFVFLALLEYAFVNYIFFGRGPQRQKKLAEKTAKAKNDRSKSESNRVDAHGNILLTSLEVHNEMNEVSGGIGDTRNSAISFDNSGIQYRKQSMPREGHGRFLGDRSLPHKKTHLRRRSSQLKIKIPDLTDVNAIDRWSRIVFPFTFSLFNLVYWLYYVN", "T1 sequence (P18507 40-475)": "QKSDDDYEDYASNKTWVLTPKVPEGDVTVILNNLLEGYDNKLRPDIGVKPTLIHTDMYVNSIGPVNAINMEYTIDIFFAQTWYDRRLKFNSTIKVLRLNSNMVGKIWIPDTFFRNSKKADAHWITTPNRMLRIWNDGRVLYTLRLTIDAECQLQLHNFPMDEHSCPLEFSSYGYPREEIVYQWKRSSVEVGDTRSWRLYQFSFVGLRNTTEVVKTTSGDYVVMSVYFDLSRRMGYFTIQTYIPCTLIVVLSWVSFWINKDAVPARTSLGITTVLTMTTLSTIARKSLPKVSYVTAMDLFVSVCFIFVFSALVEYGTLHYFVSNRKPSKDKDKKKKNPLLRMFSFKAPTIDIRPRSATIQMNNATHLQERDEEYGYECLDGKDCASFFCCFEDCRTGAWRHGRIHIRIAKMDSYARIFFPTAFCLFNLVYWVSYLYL", "assay": "Binding assay (Scintillation Proximity Assay, [3H]-Ro15-1788)", "details": "membranes of HEK293 cells expressing GABAA α5/β3/γ2", "protocol": "The GABAAα5/β3/γ2 protein used for the Scintillation Proximity Assay was derived from membranes produced from HEK293 GABAA α5/β3/γ2 expressing HEK293 cell line. HEK293 GABAA α5/β3/γ2 expressing HEK293 cell line was cultured, then harvested and centrifuged the cells. Membranes were produced by homogenization of the cell pellet with a tissue homogenizer. The resulting homogenate was centrifuged at 48,000 g for 30 minutes, re-suspended and washed twice with 10 mM potassium phosphate buffer, pH 7.4. Final resuspension of membranes took place in buffer containing 10 mM potassium phosphate and 100 mM KCl.\nFor assay, test compound (50×) was added 0.5 μl per well to a white-walled clear-bottomed 384-well plate.\nFull signal controls were prepared by the addition of 0.5 μl of DMSO to the appropriate wells. Mixture of 10 μl of protein and 10 μl of PVT-WGA beads (0.2 mg/well) were added to the plate. Both protein and bead were diluted to the desired concentration with 10 mM potassium phosphate, pH 7.4, containing 100 mM KCl. The plate was pre-incubated for 30 minutes at room temperature with shaking before initiation of the reaction by the addition of radioligand. 5 μl of [^3H]-Ro15-1788 was added at a concentration of 30 nM (5×) and the plates sealed. The reaction mix was incubated at room temperature overnight with gentle agitation on a plate shaker. The final DMSO concentration for all phases of the screening was 2% (v/v). At the end of the overnight incubation, the plates were centrifuged for two minutes at 1,000 rpm prior to reading on a Perkin Elmer Microbeta.\nConcentration-response testing was performed in duplicate and the percent effect calculated for each replicate data point. The raw data was entered in Activity Base and the curves were fitted to the mean data using Excel and XL Fit, and shown as Ki."}, "GABAA α1/β3/γ2": {"target": "GABAA α1/β3/γ2 (Homo sapiens (Human), UniProt P14867+P18507)", "sequence (P14867 28-456)": "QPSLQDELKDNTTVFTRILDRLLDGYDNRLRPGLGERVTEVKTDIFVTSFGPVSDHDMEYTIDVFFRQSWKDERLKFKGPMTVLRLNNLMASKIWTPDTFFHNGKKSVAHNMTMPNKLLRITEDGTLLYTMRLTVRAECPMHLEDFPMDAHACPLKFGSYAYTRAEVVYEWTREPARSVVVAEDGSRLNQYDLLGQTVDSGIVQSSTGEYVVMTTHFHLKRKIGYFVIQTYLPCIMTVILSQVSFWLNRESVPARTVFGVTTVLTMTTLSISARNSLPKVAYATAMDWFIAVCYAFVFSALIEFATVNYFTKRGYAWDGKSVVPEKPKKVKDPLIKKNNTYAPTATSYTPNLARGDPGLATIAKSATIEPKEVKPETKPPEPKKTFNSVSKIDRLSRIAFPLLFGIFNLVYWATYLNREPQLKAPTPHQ", "sequence (P28472 26-473 partner)": "as the sequence (P28472 26-473 partner) above", "sequence (P18507 40-475)": "as the sequence (P18507 40-475) above", "assay": "Functional assay (PatchXpress automated patch-clamp), α1 subtype", "type": "cell-based", "details": "% change of GABA EC20 response; compound 1 μM; HEK293 cells", "text": "(§2) GABAA α5/β3/γ2 HEK293 cell line was used throughout the functional assay in PatchXpress (Molecular Devices), the automated patch-clamp system. Cells stably expressing the appropriate GABAA subtype (α5/β3/γ2, α1/β3/γ2, α2/β3/γ2 or α3/β3/γ2) were dissociated from poly-D-lysine treated tissue culture flasks using a mixture of one part TrypLE (Invitrogen, cat #12604): one part Dulbecco's Phosphate Buffered Saline (Invitrogen, cat #14190). The dissociated cells were re-suspended in growth media (D-MEM/F-12 media (Invitrogen, cat #11320) supplemented with 10% (v/v) Foetal Bovine Serum (Invitrogen, cat #10082) and 1% (v/v) non-essential amino acids (Invitrogen, cat #11140)) and allowed to recover for one hour at 37° C. in a humidified incubator with 5% CO2. At the end of the recovery period cells were centrifuged at 1,000 rpm for two minutes and the resulting pellet re-suspended in external solution (in mM; 137 NaCl, 4 KCl, 10 HEPES, 1.8 CaCl2, 1 MgCl2, 10 glucose, pH set to 7.35 with NaOH). Cells were counted and diluted to 2.5×10^6/ml in external solution. The patch-clamp assay protocol involved determination of current amplitude with control applications of GABA EC20 containing concentration-matched DMSO (0.3% v/v), then pre-incubation of the test compound for one minute prior to the addition of the same compound diluted with the GABA EC20. Compound and/or GABA was applied for five seconds, with two minute wash periods between applications. No wash period was present at the end of the compound pre-application stage. The internal solution comprised (in mM) 90 KCl, 50 KF, 11 EGTA, 10 HEPES, 1 MgCl2, 2 Mg-ATP, the pH was set to 7.35 with KOH and the holding potential was −60 mV. Compounds were assayed at a concentration of 1 μM."}, "GABAA α5/β3/γ2 [4]": {"target": "T1, GABAA α5/β3/γ2", "assay": "Functional assay (PatchXpress automated patch-clamp), α5 subtype", "type": "cell-based", "details": "% change of GABA EC20 response; compound 1 μM; HEK293 cells", "text": "as §2"}}}
{"smiles": "Cc1c(F)c(Nc2ccc(-n3ccnc3)nc2)cc2c1ncn2CC1CC1", "note": "[Example 88, N-(6-(1H-Imidazol-1-yl)pyridin-3-yl)-1-(cyclopropylmethyl)-5-fluoro-4-methyl-1H-benzo[d]imidazol-6-amine]", "values": [{"measurement": "microsomal stability (%)", "setting": "[1]", "result": 95, "unit": "%"}, {"measurement": "hepatocyte stability (%)", "setting": "[2]", "result": 81, "unit": "%"}]}
{"smiles": "Cc1c(F)c(Nc2cc3c(cn2)N(C)C(=O)CO3)cc2c1ncn2CC1CC1", "note": "[Example 87, 7-((1-(Cyclopropylmethyl)-5-fluoro-4-methyl-1H-benzo[d]imidazol-6-yl)amino)-4-methyl-2H-pyrido[4,3-b][1,4]oxazin-3(4H)-one]", "values": [{"measurement": "microsomal stability (%)", "setting": "[1]", "result": 76, "unit": "%"}, {"measurement": "hepatocyte stability (%)", "setting": "[2]", "result": 103, "unit": "%"}]}
{"smiles": "CN1C(=O)COc2nc(Nc3cc(C(F)(F)F)c4ncn(CC5CC5)c4n3)ccc21", "note": "[Example 151, 6-((3-(Cyclopropylmethyl)-7-(trifluoromethyl)-3H-imidazo[4,5-b]pyridin-5-yl)amino)-1-methyl-1H-pyrido[2,3-b][1,4]oxazin-2(3H)-one]", "values": [{"measurement": "microsomal stability (%)", "setting": "[1]", "result": 77, "unit": "%"}, {"measurement": "hepatocyte stability (%)", "setting": "[2]", "result": 101, "unit": "%"}]}
{"smiles": "CN1C(=O)COc2cc(Nc3cnc4ncn(CC5CC5)c4n3)ccc21", "note": "[Example 42, 7-((1-(Cyclopropylmethyl)-1H-imidazo[4,5-b]pyrazin-6-yl)amino)-4-methyl-2H-benzo[b][1,4]oxazin-3(4H)-one]", "values": [{"measurement": "Ki", "setting": "GABAA α5/β3/γ2 [3]", "result": 24, "unit": "nM"}, {"measurement": "inhibition at 1 µM", "setting": "GABAA α1/β3/γ2", "result": 0.2, "unit": "%"}, {"measurement": "inhibition at 1 µM", "setting": "GABAA α5/β3/γ2 [4]", "result": 55.9, "unit": "%"}]}
{"smiles": "Cc1cc(Nc2ccc3c(n2)OCC(=O)N3C)nc2c1ncn2CC1CC1", "note": "[Example 159, 6-((3-(Cyclopropylmethyl)-7-methyl-3H-imidazo[4,5-b]pyridin-5-yl)amino)-1-methyl-1H-pyrido[2,3-b][1,4]oxazin-2(3H)-one]", "values": [{"measurement": "Ki", "setting": "GABAA α5/β3/γ2 [3]", "result": 6.4, "unit": "nM"}, {"measurement": "inhibition at 1 µM", "setting": "GABAA α1/β3/γ2", "result": 4.8, "unit": "%"}, {"measurement": "inhibition at 1 µM", "setting": "GABAA α5/β3/γ2 [4]", "result": 46.7, "unit": "%"}]}
{"smiles": "COCCN1C(=O)COc2cc(Nc3ncc4ncn(CC5CC5)c4n3)ccc21", "note": "[Example 46, 7-((9-(Cyclopropylmethyl)-9H-purin-2-yl)amino)-4-(2-methoxyethyl)-2H-benzo[b][1,4]oxazin-3(4H)-one]", "values": [{"measurement": "Ki", "setting": "GABAA α5/β3/γ2 [3]", "result": 38, "unit": "nM"}, {"measurement": "inhibition at 1 µM", "setting": "GABAA α1/β3/γ2", "result": -0.9, "unit": "%"}, {"measurement": "inhibition at 1 µM", "setting": "GABAA α5/β3/γ2 [4]", "result": 42.4, "unit": "%"}]}
{"smiles": "CN1C(=O)COc2cc(Nc3cc4c(cc3F)ncn4CC3CC(F)(F)C3)cnc21", "note": "[Example 52, 7-((1-((3,3-Difluorocyclobutyl)methyl)-5-fluoro-1H-benzo[d]imidazol-6-yl)amino)-4-methyl-2H-pyrido[3,2-b][1,4]oxazin-3(4H)-one]", "values": [{"measurement": "Ki", "setting": "GABAA α5/β3/γ2 [3]", "result": 6.7, "unit": "nM"}, {"measurement": "inhibition at 1 µM", "setting": "GABAA α1/β3/γ2", "result": 7.5, "unit": "%"}, {"measurement": "inhibition at 1 µM", "setting": "GABAA α5/β3/γ2 [4]", "result": 41.8, "unit": "%"}]}
{"smiles": "Fc1cc(Nc2cc3c(ncn3CC3CC3)c(F)c2F)ccc1-n1ccnc1", "note": "[Example 95, 1-(Cyclopropylmethyl)-4,5-difluoro-N-(3-fluoro-4-(1H-imidazol-1-yl)phenyl)-1H-benzo[d]imidazol-6-amine]", "values": [{"measurement": "microsomal stability (%)", "setting": "[1]", "result": 89, "unit": "%"}, {"measurement": "hepatocyte stability (%)", "setting": "[2]", "result": 96, "unit": "%"}]}
{"smiles": "Cc1nc(Nc2cnc3c(c2)OCC(=O)N3C)cc2c1ncn2CC1CC1", "note": "[Example 120, 7-((1-(Cyclopropylmethyl)-4-methyl-1H-imidazo[4,5-c]pyridin-6-yl)amino)-4-methyl-2H-pyrido[3,2-b][1,4]oxazin-3(4H)-one]", "values": [{"measurement": "microsomal stability (%)", "setting": "[1]", "result": 94, "unit": "%"}, {"measurement": "hepatocyte stability (%)", "setting": "[2]", "result": 85, "unit": "%"}]}
{"smiles": "Cn1c(=O)oc2cc(Nc3cnc4ncn(CC5CC5)c4n3)ccc21", "note": "[Example 43, 6-((1-(Cyclopropylmethyl)-1H-imidazo[4,5-b]pyrazin-6-yl)amino)-3-methylbenzo[d]oxazol-2(3H)-one]", "values": [{"measurement": "Ki", "setting": "GABAA α5/β3/γ2 [3]", "result": 42, "unit": "nM"}, {"measurement": "inhibition at 1 µM", "setting": "GABAA α1/β3/γ2", "result": 8, "unit": "%"}, {"measurement": "inhibition at 1 µM", "setting": "GABAA α5/β3/γ2 [4]", "result": 55.1, "unit": "%"}]}
{"smiles": "Cc1nc(Nc2ccc3c(n2)OCC(=O)N3C)cc2c1ncn2CC1CC1", "note": "[Example 124, 6-((1-(Cyclopropylmethyl)-4-methyl-1H-imidazo[4,5-c]pyridin-6-yl)amino)-1-methyl-1H-pyrido[2,3-b][1,4]oxazin-2(3H)-one]", "values": [{"measurement": "microsomal stability (%)", "setting": "[1]", "result": 72, "unit": "%"}, {"measurement": "hepatocyte stability (%)", "setting": "[2]", "result": 75, "unit": "%"}]}
{"smiles": "CN1C(=O)COc2cc(Nc3cc4c(cc3F)ncn4CCC3CC3)cnc21", "note": "[Example 67, 7-((1-(2-Cyclopropylethyl)-5-fluoro-1H-benzo[d]imidazol-6-yl)amino)-4-methyl-2H-pyrido[3,2-b][1,4]oxazin-3(4H)-one]", "values": [{"measurement": "Ki", "setting": "GABAA α5/β3/γ2 [3]", "result": 4.1, "unit": "nM"}, {"measurement": "inhibition at 1 µM", "setting": "GABAA α1/β3/γ2", "result": -0.5, "unit": "%"}, {"measurement": "inhibition at 1 µM", "setting": "GABAA α5/β3/γ2 [4]", "result": 52.5, "unit": "%"}]}
{"smiles": "O=C1COc2cc(Nc3cc4c(cn3)ncn4CC3CC3)ccc2N1C1CC1", "note": "[Example 37, 4-Cyclopropyl-7-((1-(cyclopropylmethyl)-1H-imidazo[4,5-c]pyridin-6-yl)amino)-2H-benzo[b][1,4]oxazin-3(4H)-one]", "values": [{"measurement": "Ki", "setting": "GABAA α5/β3/γ2 [3]", "result": 38.8, "unit": "nM"}, {"measurement": "inhibition at 1 µM", "setting": "GABAA α1/β3/γ2", "result": -5, "unit": "%"}, {"measurement": "inhibition at 1 µM", "setting": "GABAA α5/β3/γ2 [4]", "result": 46, "unit": "%"}]}
{"smiles": "CN1C(=O)COc2ncc(Nc3ccc4ncn(CC5CC5)c4n3)cc21", "note": "[Example 111, 7-((3-(Cyclopropylmethyl)-3H-imidazo[4,5-b]pyridin-5-yl)amino)-1-methyl-1H-pyrido[2,3-b][1,4]oxazin-2(3H)-one]", "values": [{"measurement": "Ki", "setting": "GABAA α5/β3/γ2 [3]", "result": 34.6, "unit": "nM"}, {"measurement": "inhibition at 1 µM", "setting": "GABAA α1/β3/γ2", "result": -0.3, "unit": "%"}, {"measurement": "inhibition at 1 µM", "setting": "GABAA α5/β3/γ2 [4]", "result": 44.4, "unit": "%"}]}
